Drawing on patent US20260216294A1, “BETA 2-ADRENERGIC RECEPTOR AGONISTS FOR TREATMENT OR PREVENTION OF MUSCLE WASTING” (ATROGI AB, priority 2023, published 2026), this text covers Emax for 32 compounds.

Assay [1] deals with L6-myotubes. Nature of the assay: Glucose uptake in differentiated L6-myotubes (Biological Example 2). It counts as cell-based. The following applies: glucose uptake in differentiated L6-myotubes; compound at 10 μM, activity relative to isoproterenol at 10 μM; read-out: Biological example 2 (GU). Put shortly: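 Uptake was quantified as radioactivity in 0.2 M NaOH lysates after a 10 min pulse of 50 nM ^3H-2-deoxyglucose. The pulse followed two agonist exposures at 1×10^−5 M final (isoprenaline or test compound): 1 h 40 min, then 20 min in glucose-free medium after washing. L6 myotubes had been starved overnight in medium with 0.5% fatty-acid-free BSA.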

For assay [2], the system named is L6-myotubes. Put plainly: Measurement of intracellular cAMP levels in differentiated L6-myotubes (Biological Example 3). Type of assay: cell-based. As to conditions: 0.25 h, intracellular cAMP in differentiated L6-myotubes; compound at 10 μM, activity relative to isoproterenol at 10 μM. Put shortly: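 Intracellular cAMP quantified by AlphaScreen after ethanol extraction and lysis of L6 myotubes. Cells were serum-starved overnight, then exposed for 15 min to compound (final 1×10^−5 M) or isoprenaline in IBMX-containing (1 mM) HBSS buffer, pH 7.4.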
On the technique in general: cAMP levels reflect the balance of adenylyl cyclase and phosphodiesterase activity.

SMILES strings stand for the structures.

With `CC(C)(NC[C@H](O)c1cccc(F)c1)[C@H]1CC[C@@H](OCc2ccccc2)CC1` [Compound 280, (R)-1-(m-fluorophenyl)-2-{1-methyl-1-[(1s,4S)-4-(benzyloxy)cyclohexyl]ethylamino}-1-ethanol], the Emax at 10 µM was above 75% in assay [1] and below 25% in assay [2].

Take `CC(C)(NC[C@H](O)c1cncc(F)c1)[C@H]1CC[C@H](OCc2ccccc2)CC1` [Compound 281, (R)-1-(5-fluoro-3-pyridyl)-2-{1-methyl-1-[(1r,4R)-4-(benzyloxy)cyclohexyl]ethylamino}-1-ethanol]: the Emax at 10 µM in assay [1] was 50 to 75%; in assay [2] it was below 25%.

Regarding `CC(C)(NC[C@H](O)c1cncc(F)c1)[C@H]1CC[C@@H](OCc2ccccc2)CC1` [Compound 282, (R)-1-(5-fluoro-3-pyridyl)-2-{1-methyl-1-[(1s,4S)-4-(benzyloxy)cyclohexyl]ethylamino}-1-ethanol], the Emax at 10 µM is 50 to 75% in assay [1] and below 25% in assay [2].

`CC(C)(NC[C@H](O)c1cccc(F)c1)[C@H]1CC[C@H](O)CC1` [Compound 283, (R)-1-(m-fluorophenyl)-2-{1-methyl-1-[(1r,4R)-4-hydroxycyclohexyl]ethylamino}-1-ethanol]: the Emax at 10 µM in assay [1] is 50 to 75%; in assay [2] it was below 25%.

On to `CC(C)(NC[C@H](O)c1cccc(F)c1)[C@H]1CC[C@@H](O)CC1` [Compound 284, (R)-1-(m-fluorophenyl)-2-{1-methyl-1-[(1s,4S)-4-hydroxycyclohexyl]ethylamino}-1-ethanol], for which the Emax at 10 µM was 50 to 75% in assay [1] and below 25% in assay [2].

As for `CC(C)(NC[C@H](O)c1cncc(F)c1)[C@H]1CC[C@H](O)CC1` [Compound 285, (R)-1-(5-fluoro-3-pyridyl)-2-{1-methyl-1-[(1r,4R)-4-hydroxycyclohexyl]ethylamino}-1-ethanol], the results for the Emax at 10 µM in assay [1] and in assay [2] were 50 to 75% and below 25%, respectively.

On to `CC(C)(NC[C@H](O)c1cncc(F)c1)[C@H]1CC[C@@H](O)CC1` [Compound 286, (R)-1-(5-fluoro-3-pyridyl)-2-{1-methyl-1-[(1s,4S)-4-hydroxycyclohexyl]ethylamino}-1-ethanol], for which the Emax at 10 µM is 25 to 50% in assay [1] and below 25% in assay [2].

As for `O[C@@H](CNCC[C@H]1CC[C@@H](OCc2ccccc2)CC1)c1cccc(F)c1` [Compound 287, (R)-1-(m-fluorophenyl)-2-{2-[(1s,4S)-4-(benzyloxy)cyclohexyl]ethylamino}-1-ethanol], the Emax at 10 µM in assay [1] is 50 to 75%; in assay [2], below 25%.

On to `O[C@@H](CNCC[C@H]1CC[C@H](OCc2ccccc2)CC1)c1cccc(F)c1` [Compound 288, (R)-1-(m-fluorophenyl)-2-{2-[(1r,4R)-4-(benzyloxy)cyclohexyl]ethylamino}-1-ethanol], for which the Emax at 10 µM in assay [1] is 25 to 50%; in assay [2], below 25%.

As to `CC(C)(CC[C@H]1CC[C@H](O)CC1)NC[C@H](O)c1cncc(F)c1` [Compound 289, (R)-2-{1,1-dimethyl-3-[(1r,4S)-4-hydroxycyclohexyl]propylamino}-1-(5-fluoro-3-pyridyl)-1-ethanol], the values for the Emax at 10 µM in assay [1] and in assay [2] were 25 to 50% and below 25%, respectively.

On to `CC(C)(CC[C@H]1CC[C@H](O)CC1)NC[C@H](O)c1cccc(F)c1` [Compound 290, (R)-2-{1,1-dimethyl-3-[(1r,4S)-4-hydroxycyclohexyl]propylamino}-1-(m-fluorophenyl)-1-ethanol], for which the Emax at 10 µM was 25 to 50% in assay [1] and below 25% in assay [2].

On to `O[C@@H](CNCC[C@H]1CC[C@@H](OCc2ccccc2)CC1)c1cncc(F)c1` [Compound 291, (R)-1-(5-fluoro-3-pyridyl)-2-{2-[(1s,4S)-4-(benzyloxy)cyclohexyl]ethylamino}-1-ethanol], for which the Emax at 10 µM was 50 to 75% in assay [1] and below 25% in assay [2].

As to `O[C@@H](CNCC[C@H]1CC[C@H](OCc2ccccc2)CC1)c1cncc(F)c1` [Compound 292, (R)-1-(5-fluoro-3-pyridyl)-2-{2-[(1r,4R)-4-(benzyloxy)cyclohexyl]ethylamino}-1-ethanol], the Emax at 10 µM in assay [1] and in assay [2] was below 25% in each case.

With `O[C@@H](CNCC[C@H]1CC[C@@H](O)CC1)c1cncc(F)c1` [Compound 293, (R)-1-(5-fluoro-3-pyridyl)-2-{2-[(1s,4S)-4-hydroxycyclohexyl]ethylamino}-1-ethanol], the values for the Emax at 10 µM in assay [1] and in assay [2] were 25 to 50% and below 25%, respectively.

With `O[C@@H](CNCC[C@H]1CC[C@H](O)CC1)c1cncc(F)c1` [Compound 294, (R)-1-(5-fluoro-3-pyridyl)-2-{2-[(1r,4R)-4-hydroxycyclohexyl]ethylamino}-1-ethanol], the Emax at 10 µM in assay [1] is 25 to 50%; in assay [2], below 25%.

In the case of `CC(C)(CC[C@H]1CC[C@@H](O)CC1)NC[C@H](O)c1cccc(F)c1` [Compound 295, (R)-2-{1,1-dimethyl-3-[(1s,4R)-4-hydroxycyclohexyl]propylamino}-1-(m-fluorophenyl)-1-ethanol], the Emax at 10 µM was above 75% in assay [1] and below 25% in assay [2].

With `CC(C)(CC[C@H]1CC[C@@H](O)CC1)NC[C@H](O)c1cncc(F)c1` [Compound 296, (R)-2-{1,1-dimethyl-3-[(1s,4R)-4-hydroxycyclohexyl]propylamino}-1-(5-fluoro-3-pyridyl)-1-ethanol], the Emax at 10 µM in assay [1] was above 75%; in assay [2], below 25%.

Turning to `O[C@@H](CNCC[C@H]1CC[C@@H](O)CC1)c1cccc(F)c1` [Compound 297, (R)-1-(m-fluorophenyl)-2-{2-[(1s,4S)-4-hydroxycyclohexyl]ethylamino}-1-ethanol], the Emax at 10 µM was 50 to 75% in assay [1] and below 25% in assay [2].

As to `O[C@@H](CNCC[C@H]1CC[C@H](O)CC1)c1cccc(F)c1` [Compound 298, (R)-1-(m-fluorophenyl)-2-{2-[(1r,4R)-4-hydroxycyclohexyl]ethylamino}-1-ethanol], the Emax at 10 µM in assay [1] is 25 to 50%; in assay [2] it was below 25%.

For the compound `CC(C)(C[C@H]1CC[C@H](O)CC1)NC[C@H](O)c1cncc(F)c1` [Compound 299, (R)-2-{1,1-dimethyl-2-[(1r,4R)-4-hydroxycyclohexyl]ethylamino}-1-(5-fluoro-3-pyridyl)-1-ethanol], the Emax at 10 µM in assay [1] was 50 to 75%; in assay [2] it was below 25%.

For `CC(C)(C[C@H]1CC[C@H](O)CC1)NC[C@H](O)c1cccc(F)c1` [Compound 300, (R)-2-{1,1-dimethyl-2-[(1r,4R)-4-hydroxycyclohexyl]ethylamino}-1-(m-fluorophenyl)-1-ethanol], the Emax at 10 µM in assay [1] was above 75%; in assay [2], below 25%.

In the case of `CC(C)(C[C@H]1CC[C@@H](O)CC1)NC[C@H](O)c1cncc(F)c1` [Compound 301, (R)-2-{1,1-dimethyl-2-[(1s,4S)-4-hydroxycyclohexyl]ethylamino}-1-(5-fluoro-3-pyridyl)-1-ethanol], the Emax at 10 µM was above 75% in assay [1] and below 25% in assay [2].

Regarding `CC(C)(C[C@H]1CC[C@@H](O)CC1)NC[C@H](O)c1cccc(F)c1` [Compound 302, (R)-2-{1,1-dimethyl-2-[(1s,4S)-4-hydroxycyclohexyl]ethylamino}-1-(m-fluorophenyl)-1-ethanol], the results for the Emax at 10 µM in assay [1] and in assay [2] were 50 to 75% and below 25%, respectively.

As for `O[C@@H](CNCCC[C@H]1CC[C@H](O)CC1)c1cccc(F)c1` [Compound 303, (R)-1-(m-fluorophenyl)-2-{3-[(1r,4S)-4-hydroxycyclohexyl]propylamino}-1-ethanol], the Emax at 10 µM in assay [1] was 50 to 75%; in assay [2], below 25%.

Consider `O[C@@H](CNCCC[C@H]1CC[C@@H](O)CC1)c1cncc(F)c1` [Compound 304, (R)-1-(5-fluoro-3-pyridyl)-2-{3-[(1s,4R)-4-hydroxycyclohexyl]propylamino}-1-ethanol], for which the Emax at 10 µM in assay [1] is 50 to 75%; in assay [2] it was below 25%.

As to `O[C@@H](CNCCC[C@H]1CC[C@H](O)CC1)c1cncc(F)c1` [Compound 305, (R)-1-(5-fluoro-3-pyridyl)-2-{3-[(1r,4S)-4-hydroxycyclohexyl]propylamino}-1-ethanol], the Emax at 10 µM in assay [1] is 25 to 50%; in assay [2] it was below 25%.

On to `O[C@@H](CNCCC[C@H]1CC[C@@H](O)CC1)c1cccc(F)c1` [Compound 306, (R)-1-(m-fluorophenyl)-2-{3-[(1s,4R)-4-hydroxycyclohexyl]propylamino}-1-ethanol], for which the Emax at 10 µM is 25 to 50% in assay [1] and below 25% in assay [2].

Regarding `CC(=O)N[C@H]1CC[C@@H](CNC[C@H](O)c2cccc(F)c2)CC1` [Compound 307], the Emax at 10 µM in assay [1] is 50 to 75%; in assay [2], below 25%.

With `CC(=O)N[C@H]1CC[C@H](CNC[C@H](O)c2cccc(F)c2)CC1` [Compound 308], the Emax at 10 µM in assay [1] is 50 to 75%; in assay [2], below 25%.

For `CC(=O)N[C@H]1CC[C@H](CNC[C@H](O)c2cncc(F)c2)CC1` [Compound 309], the figures for the Emax at 10 µM in assay [1] and in assay [2] were 50 to 75% and below 25%, respectively.

Take `CC(=O)N[C@H]1CC[C@@H](CNC[C@H](O)c2cncc(F)c2)CC1` [Compound 310]: the Emax at 10 µM in assay [1] is 25 to 50%; in assay [2], below 25%.

For the compound `CS(=O)(=O)N[C@H]1CC[C@H](CNC[C@H](O)c2cccc(F)c2)CC1` [Compound 311], the Emax at 10 µM in assay [1] was 50 to 75%; in assay [2], below 25%.
